Test results: patent publication US8790883B2, “Methods of identifying NF-κB inhibitors” (priority 2003, dated 2014)
* marks the point of attachment. BODIPYFLEthylmaleimide = Cc1cc(C)n2c1C=C1C=CC(CCC(=O)NCCN3C(=O)CC(*)C3=O)=[N+]1[B-]2(F)F

Assays:
[1] = test system: LPS-induced NF-κB activation; assay: NF-κB inhibition assay, first procedure: LPS-induced NF-κB dependent β-galactosidase reporter in 70Z/3-C3 cells; type: cell-based, murine
Protocol: The resulting cell line, 70Z3-C3, was incubated for 2 hours in the absence or in the presence of 20 μM of antennapedia peptide (Ant), or BODIPY-labeled antennapedia peptide (BODIPY-Ant), or BODIPY-labeled antennapedia peptide coupled to CC2 (BODIPY-Ant-CC2) or LZ (BODIPY-Ant-LZ) peptides, After peptide internalization, cells were treated for 5 hours with LPS (3 μg/ml, (+) in left panel) or untreated (right panel and (−) in left panel) and the NF-κB activity was measured by β-galactosidase assay. Error bars represent the standard deviation of three separate experiments. (B) Concentration dependence of inhibition of LPS-induced NF-κB activation by BODIPY-Ant-CC2 peptide (left panel) or BODIPY-Ant-LZ peptide (right panel). Cells were treated as in (A) but with different concentration of peptide as indicated. The potential of each peptide to inhibit LPS-induced NF-κB activation was measured by determining the IC50 value that correspond to 50% inhibition of LPS-induced NF-κB activation as compared to the control (no peptide) (C). (D) Effect of the N-fusion sequence of antennapedia on the inhibition of NF-κB activation. Control (no peptide) or CC2, or LZ peptides, with (BODIPY-ANT-CC2, BODIPY-ANT-LZ) or without the antennapedia sequence at the N-terminus (CC2, LZ) were incubated for 2 hours with 70Z3-C3 cells followed with (+) or without (−) the LPS-treatment for 3 hours. NF-κB activity was then measured by β-galactosidase assay.
In a first procedure 2.2×10^5 70Z/3-C3 cells in 220 μl of RPMI 1640 supplemented with 10% fetal calf serum (FCS) and 50 μM β-mercaptoethanol were placed in a 96-well plate and incubated with various concentrations of peptide (0 to 20 μM) at 37° C. in 5% CO2 incubator. After two hours an equal portion (100 μl) of each cell sample transferred in two wells containing each 10^5 cells. One aliquot of cells was then treated for 5 hours with lipopolysaccharides from Salmonella abortus (Sigma) at 0.5 μg/ml final concentration, and the other one left-treated. After 5 hours, cells were centrifuged at 400×g for 5 min at room temperature and the cell pellets were washed three times with cold PBS (250 μl) by centrifugation. Cells were then lysed in the lysis buffer (25 mM tris-phosphate buffer at pH 7.8 containing 8 mM magnesium chloride, 1 mM dithioerythreitol, 1% Triton X-100, 15% glycerol and a protease inhibitor mixture (Roche)), and samples were centrifuged at 4° C. for 20 min to clarify the lysate. The supernatant was then kept on ice, and 30 μl was then assayed to measure the β-galactosidase activity with a plate luminometer (Berthold) using the GALACTON-STAR™ as chemiluminescent substrate (BD Biosciences Clontech, Bronstein et al., 1989). Background of reaction was measured by mixing for 1 hour 30 μl of lysis buffer with the reaction buffer (196 μl) and the GALACTON-STAR™ substrate (4 μl) provided by BD Biosciences. In a second procedure and a more stringent assay, 70Z/3-C3 cells (2.2×105 in 220 μl medium) were centrifuged at 400×g at room temperature after peptide internalization for 2 hours, and cell pellets were washed three times with 200 μl of PBS by centrifugation. Cells were then diluted three times with complete medium, and allowed to grow for at least 24 hours. The following steps are identical to the first procedure.
To analyze the inhibition potential of LPS-induced NF-κB activation by cell permeable BODIPY-Ant-CC2 and BODIPY-Ant-LZ peptides, the present inventors stably transfected the murine pre-B 70Z3 cell line with p12XlacZ-kB, which bears the β-galactosidase reporter gene under the control of the NF-κB transcription factor.

[2] = test system: LPS-induced NF-κB activation; assay: More stringent NF-κB inhibition assay, second procedure: peptide internalization, washing, 24 h growth, then LPS; type: cell-based, murine; settings: 10 μM peptide, LPS 5 h after 24 h growth
From the text: Left panels show a helical wheel diagram of CC2 (A) and LZ (B) peptides. The view is from the top the molecule. The (a) through (g) positions, which are an essential feature of coiled coil sequence (Vinson, 2002, Mol. Cell. Biol.) represent sequential positions in each peptide sequence. The first (a) and fourth (d) positions that are generally occupied by hydrophobic amino acids constitute the hydrophobic core for parallel as well as antiparallel-coiled coils. Mutations that were introduced in (a) positions of the CC2 variant (BODIPY-Ant-CC2 (Mu); shown as residues 6-40 of SEQ ID NO:3, with glycine mutations corresponding to residues 6-40 of SEQ ID NO:5) or in (d) positions of the LZ variant (BODIPY-Ant-(Mu) are shown. In the right panels, 70Z3-C3 cells were incubated for 2 hours in the absence (control) or in the presence of 10 μM of cell permeable wild type (BODIPY-Ant-CC2 (WT)) or mutant (BODIPY-Ant-CC2 (Mu)) CC2 peptides (A) or wild type (BODIPY-Ant-LZ (WT)) or mutant (BODIPY-Ant-(Mu)) LZ peptides (B). The cells were then extensively washed to remove the excess peptide which had not been internalized and the cells were then diluted three times and allowed to grow for 24 hours before treatment for 5 hours with (+) or without LPS (−). NF-κB activity was measured using the β-galactosidase assay. Error bars represent the standard deviation of two independent experiments.
(A) Sequence alignment of the NEMO-derived LZ (residues 301-336 of SEQ ID NO: 12) and the GCN4 peptides (residues 23-55 of SEQ ID NO:8). Both coiled-coil motifs were aligned using clustalX. Identical and similar amino acid residues (shaded) are indicated by (!) or (*), respectively. (B) Overview and helical wheel diagram of the GCN4 coiled-coil (top view). The amino-acid sequence of GCN4 is shown with its corresponding [a-g] positions and residues that differ from the corresponding NEMO-derived LZ sequence are boxed according to their degree of conservation. Identical (open square) and similar residues (open triangle) are indicated. […] NF-κB activity was measured using the b-galactosidase assay. […]

[3] = molecular target: T1, CC2 peptide (minimal oligomerization domain of NEMO) (Mus musculus, UniProt O88522); assay: Fluorescence anisotropy titration with CC2 peptide; type: binding, murine
T1 construct: made in house; host or cells: chemical solid-phase synthesis (Fmoc/tBu), no expression host
T1 sequence (O88522 253-287): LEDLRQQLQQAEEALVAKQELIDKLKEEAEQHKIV
Protocol: (A) Direct titration of BODIPY-Ant-CC2 (1 μM) with CC2 by fluorescence anitropy. The concentration of CC2 was determined by amino acid analysis. Anisotropy values of BODIPY-Ant-CC2 in milliunits (mA) were plotted against an increasing concentration of the CC2 peptide. […] The two dashed lines represent a stoichiometric titration and intersect at an CC2 concentration of […]. Given the 1 μM concentration of the BODIPY-Ant-CC2, this gives a complex stoechiometrie of 0.8. (B) Direct titration of BODIPY-Ant-LZ (0.1 μM) with CC2 by fluorescence anitropy. […]
Anisotropy measurements were performed with a PTI QUANTAMASTER™ fluorometer equipped with polarizers for the excitation and emission beams. […] Steady-state fluorescence anisotropy was expressed as millianisotropy (mA) and was calculated according to the equations: (1) A=(IVV−GIVH)/(IVV+2GIVH); (2) G=IHV/IHH.; where A is anisotropy, G is a correction factor for wavelength-dependent distortion and I is the fluorescence intensity component (subscript referring to the vertical and horizontal positioning at the excitation and emission polarizers, respectively). […] The dissociation constant parameter was estimated by globally fitting the anisotropy data to binding isotherm equation as described in Agou et al. (J Biol Chem. 2004 Jul. 2; 279(27):27861-9) using KALEIDAGRAPH™ nonlinear regression software (Synergy Software, reading PA). […]

[4] = test system: 70Z/3-C3 cells; assay: FACS analysis of cellular uptake of BODIPY-labelled peptides; settings: 0.2, 2 or 20 μM, 5 h, 37° C.
Protocol: (A) Cellular delivery of NEMO peptides mediated by conjugation with the Antennapedia peptide.
0.5×10^6 70Z/3-C3 cells in 0.5 ml were incubated at 37° C. for different times and with various concentrations of peptides as indicated in the Figure legends. The cell suspension was centrifugated at 1,000×g at room temperature and the cell pellet was then washed three times with PBS buffer (1 ml), and finally was resuspended with 500 μl of PBS buffer containing 0.1% sodium azide. Fluorescence analysis was performed with a FACSCalibur (BD Biosciences) and a minimum of 15,000 events per sample was selected. All experiments were performed in duplicates.

[5] = Binding of NLM peptides, Hill coefficient calculation of cooperativity indices
From the text: The present inventors compared NLM-DR to the corresponding NLM peptide by measuring the respective cooperativity indices, which evidence an advantage of NLM-DR mutated peptide over the wild-type.
The calculation of the “cooperativity indice” by means of Hill coefficient is based on the following formula Boundmax×L^n/(KD^n+L^n)
Wherein • Boundmax is the maximum concentration of the bound ligand, • L is the concentration of the free ligand, • n is the cooperativity indice and • KD, is the affinity constant of the ligand by the protein.

[6] = Circular dichroism studies of helix stability; type: physicochemical
From the text: From circular dichroism studies (CD), it appears that CC2 and LZ peptides adopt a helicoidal structure, depending on their concentration. […] RMN and Rayon X Diffraction studies have confirmed the structure of CC2.

## Ac-C(BODIPYFLEthylmaleimide)RQIKIWFQNRRMKWKKSKGMQLEDLRQQLQQAEEALVAKQELIDKLKEEAEQHKIV-NH2 [BODIPY-Ant-CC2 (WT)]
[1]; 20 μM peptide 2 h, LPS (3 μg/ml) 5 h, 70Z3-C3 cells
  LPS-induced NF-κB activation in presence of peptide: decreased significantly
[1]; 20 μM peptide, B lymphocytes stimulated by LPS
  Reduction of NF-κB activity as compared with a control peptide: 70%
[1]; 70Z3-C3 cells, peptide 2 h, then LPS 5 h, β-galactosidase assay, read-out: IC50, 50% inhibition of LPS-induced NF-κB activation as compared to the control (no peptide)
  IC50: 22 µM
[2]
  Reduction of NF-κB activation: 1.7 fold
[3]
  Kd: 15.2 µM
[3]; 1 μM BODIPY-Ant-CC2 titrated with CC2
  Binding stoichiometry of complex with CC2: 0.8
[4]
  Dependency of intracellular concentration on incubated concentration: linear dependancy

## LKAQADIYKARFQAERHAREK [NLM-DR]
[5]
  Affinity relative to wild-type NLM peptide, without accounting for cooperativity: 75 times
[6]
  Helix stability by circular dichroism: helix more stable than the wild-type peptide
